Measurements as given in patent publication US9920039B2, “1,2,4-Oxadiazol compounds active against gram-positive pathogens” (UNIVERSITÀ DEGLI STUDI DI MILANO—BICOCCA, priority 2013, dated 2018).
In brackets after ≈: the same amount, converted by molar mass. Read-outs that look alike come from different tables or passages of the source.

Assays:
[1] = test system: Staphylococcus aureus ATCC 29213; experiment: MIC by broth microdilution (CLSI); format: cell-based
Excerpt: (§1) Several well characterized for their antibiotic-susceptibility phenotype Staphylococcus aureus isolates were used for the determination of the in vitro antibacterial activity of the studied compounds. In particular, S. aureus ATCC 29213 reference standard strain and S. aureus M923 (collection strain) were used as MSSA strains. Among MRSA, S. aureus MU50 (ATCC 700699) reference standard strain and two collection strains (433 and F511) were used for susceptibility assays.
(§2) The in vitro antibacterial activity of the new agents was studied by determining their minimum inhibitory concentrations (MICs) by means of the broth microdilution method according to the Clinical and Laboratory Standards Institute (CLSI) guidelines.[16] Briefly, serial 2-fold dilutions of each compound were made using the Cation adjusted Mueller-Hinton broth (CAMHB) in microtitre plates with 96 wells. Dimethyl sulfoxide (DMSO) was used as solvent for all the synthesized compounds. An equal volume of the bacterial inoculum (1×10^6 CFU/mL) was added to each well on the microtitre plate containing 0.05 mL of the serial antibiotic dilutions. The microtitre plate was then incubated at 37° C. for 18-24 h after which each well was analysed for the presence of bacterial growth. The MIC was defined as the lowest concentration of antimicrobial agent able to cause inhibition of bacterial growth as shown by the lack of turbidity of the culture medium. […] Final DMSO concentrations were also taken into account in all the biological assays.
(§3) The antimicrobial activities, summarized in Table 2, were determined by the “gold standard” method of broth microdilution, as recommended by the Clinical Laboratory Standards Institute (CLSI) (See the Experimental Section). […] In detail, the bacterial strains were tested: Staphylococcus aureus ATCC 29213, a clinical strain of methicillin-susceptible S. aureus (M923), S. aureus MU50 (methicillin-resistant—MRSA), and two methicillin-resistant clinical strains, 433 and F511.
(§4) The antimicrobial activities, summarized in Table 3, were determined by the “gold standard” method of broth microdilution, as recommended by the Clinical Laboratory Standards Institute (CLSI) (See the Experimental Section). The minimum inhibitory concentration (MIC) values were expressed in μg/mL. […] In detail, the tested bacterial strains were: Staphylococcus aureus ATCC 29213, a clinical strain of methicillin-susceptible S. aureus (M923), S. aureus MU50 (methicillin-resistant—MRSA) strain, and two methicillin-resistant clinical strains, 433 and F511.

ATCC E. faecalis 29212 = experiment: MIC by broth microdilution (Table 5); format: cell-based, Enterococcus faecalis
Protocol: Dimethyl sulfoxide (DMSO) was used as solvent for all the synthesized compounds. An equal volume of the bacterial inoculum (1×10^6 CFU/mL) was added to each well on the microtitre plate containing 0.05 mL of the serial antibiotic dilutions. The microtitre plate was then incubated at 37° C. for 18-24 h after which each well was analysed for the presence of bacterial growth. The MIC was defined as the lowest concentration of antimicrobial agent able to cause inhibition of bacterial growth as shown by the lack of turbidity of the culture medium. […] Final DMSO concentrations were also taken into account in all the biological assays.

[2] = test system: Linezolid-resistant S. epidermidis Strains 1-10; experiment: MIC by broth microdilution (Table 5); format: cell-based, Staphylococcus epidermidis
Excerpt: as §2

[3] = test system: Linezolid-resistant S. hominis Strain 11; experiment: MIC by broth microdilution (Table 5); format: cell-based, Staphylococcus hominis; settings: S. hominis Strain 11, linezolid-resistant
Excerpt: as §2

[4] = test system: 11 Linezolid-resistant CoNS; experiment: MIC summary on strain panel (Table 5); format: cell-based, Staphylococcus epidermidis, Staphylococcus hominis; settings: for MIC50 / MIC90: 11 Linezolid-resistant CoNS
Excerpt: as §2

[5] = test system: 45 Linezolid-susceptible MRSA; experiment: MIC summary on strain panel (Table 5); format: cell-based, Staphylococcus aureus
Excerpt: In particular, eleven linezolid-resistant coagulase-negative staphylococci (CoNS) (ten S. epidermidis and one S. hominis) were investigated. The eleven linezolid-resistant strains were isolated in several hospital settings between 2010 and 2011 from positive blood cultures. For the […], recently isolated from patients with cystic fibrosis, showing different profiles of multi-resistance to different classes of antimicrobials, was used (Table 4 and 5).
as §2

[6] = test system: mitochondrial protein synthesis (OXPHOS complexes) in HepG2 cells; experiment: Oxidative phosphorylation (OXPHOS) assay
Excerpt: This assay (Nadaciva S. et al., 2010) is used to monitor the level of mitochondrial protein synthesis of some key proteins in the process of oxidative phosphorylation of eukaryotic cells, comparing it with the level of synthesis of mitochondrial proteins encoded by nuclear DNA. This study allows us to analyze the effects of A4bS on the proteins encoded by mitochondrial DNA (mtDNA).
The data represent the mean±SEM of three separate experiments performed in triplicate. Statistical significance is obtained by the Student's test compared to the […].

MRSA clinical strain 433 = experiment: MIC by broth microdilution (CLSI); format: cell-based, Staphylococcus aureus; settings: MRSA 433
Excerpt: as §1, §2, §3, §4

[7] = test system: MRSA clinical strain F511; experiment: MIC by broth microdilution (CLSI); format: cell-based, Staphylococcus aureus; settings: Staphylococcus aureus
Excerpt: as §1, §2, §3, §4

[8] = test system: S. aureus MU50 (ATCC 700699), methicillin-resistant (MRSA); experiment: MIC by broth microdilution (CLSI); format: cell-based, Staphylococcus aureus
Excerpt: as §1, §2, §3, §4

[9] = test system: methicillin-susceptible S. aureus (M923); experiment: MIC by broth microdilution (CLSI); format: cell-based, Staphylococcus aureus; settings: Staphylococcus aureus
Excerpt: as §1, §2, §3, §4

[10] = test system: 6 ATCC (4MSSA, 2 MRSA)plus45 MRSA all LZD sensitive; experiment: MIC on strain panel (Table 4); format: cell-based, Staphylococcus aureus; settings: 6 ATCC plus 45 MRSA
Excerpt: as §2

[11] = test system: 12 MRSE all LZD sensitive; experiment: MIC on strain panel (Table 4); format: cell-based, Staphylococcus epidermidis
Excerpt: as §2

[12] = ATCC S. aureus 29213, resolved enantiomers, Table 5, read-out: MIC
[13] = S. epidermidis Strain 1, linezolid-resistant
[14] = S. epidermidis Strain 2, linezolid-resistant
[15] = S. epidermidis Strain 3, linezolid-resistant
[16] = S. epidermidis Strain 4, linezolid-resistant
[17] = S. epidermidis Strain 5, linezolid-resistant
[18] = S. epidermidis Strain 6, linezolid-resistant
[19] = S. epidermidis Strain 7, linezolid-resistant
[20] = S. epidermidis Strain 8, linezolid-resistant
[21] = S. epidermidis Strain 9, linezolid-resistant
[22] = S. epidermidis Strain 10, linezolid-resistant
[23] = Staphylococcus aureus, racemic mixture, Table 2, read-out: MIC

Compound	MIC [1, 12]	MIC (ATCC E. faecalis 29212)	MIC [2, 13]	MIC [2, 14]	MIC [2, 15]	MIC [2, 16]	MIC [2, 17]	MIC [2, 18]	MIC [2, 19]	MIC [2, 20]	MIC [2, 21]	MIC [2, 22]	MIC [3]	MIC50 [4]	MIC90 [4]	MIC50 [5]	also measured
CC(=S)NC[C@H]1CN(c2ccc(-c3nc(C)no3)cc2)C(=O)O1 [Compound A4aS]	8 µg/mL (≈ 24.1 µM)	4 µg/mL (≈ 12 µM)	8 µg/mL (≈ 24.1 µM)	32 µg/mL (≈ 96.3 µM)	4 µg/mL (≈ 12 µM)	32 µg/mL (≈ 96.3 µM)	4 µg/mL (≈ 12 µM)	4 µg/mL (≈ 12 µM)	32 µg/mL (≈ 96.3 µM)	32 µg/mL (≈ 96.3 µM)	1 µg/mL (≈ 3.01 µM)	8 µg/mL (≈ 24.1 µM)	8 µg/mL (≈ 24.1 µM)	8 µg/mL (≈ 24.1 µM)	32 µg/mL (≈ 96.3 µM)	2 µg/mL (≈ 6.02 µM)	–
CC(=S)NC[C@@H]1CN(c2ccc(-c3nc(C)no3)c(F)c2)C(=O)O1 [Compound A4bR]	64 µg/mL (≈ 183 µM)	32 µg/mL (≈ 91.3 µM)	128 µg/mL (≈ 365 µM)	> 128 µg/mL	> 128 µg/mL	128 µg/mL (≈ 365 µM)	128 µg/mL (≈ 365 µM)	64 µg/mL (≈ 183 µM)	> 128 µg/mL	128 µg/mL (≈ 365 µM)	> 128 µg/mL	128 µg/mL (≈ 365 µM)	128 µg/mL (≈ 365 µM)	128 µg/mL (≈ 365 µM)	128 µg/mL (≈ 365 µM)	128 µg/mL (≈ 365 µM)	–
CC(=S)NC[C@H]1CN(c2ccc(-c3nc(C)no3)c(F)c2)C(=O)O1 [Compound A4bS]	4 µg/mL (≈ 11.4 µM)	2 µg/mL (≈ 5.71 µM)	8 µg/mL (≈ 22.8 µM)	8 µg/mL (≈ 22.8 µM)	4 µg/mL (≈ 11.4 µM)	4 µg/mL (≈ 11.4 µM)	2 µg/mL (≈ 5.71 µM)	4 µg/mL (≈ 11.4 µM)	8 µg/mL (≈ 22.8 µM)	2 µg/mL (≈ 5.71 µM)	1 µg/mL (≈ 2.85 µM)	4 µg/mL (≈ 11.4 µM)	4 µg/mL (≈ 11.4 µM)	4 µg/mL (≈ 11.4 µM)	8 µg/mL (≈ 22.8 µM)	0.5 µg/mL (≈ 1.43 µM)	effect on linezolid resistance (in words) ([4]; linezolid-resistant Staphylococcus spp. strains): completely reversed resistance to linezolid into susceptibility; effect on proteins synthesized by mtDNA (in words) [6]: reduction of the synthesis of proteins of complex I and IV
CC(=O)NC[C@H]1CN(c2ccc(N3CCOCC3)c(F)c2)C(=O)O1 [Linezolid, reference compound]	–	–	–	–	–	–	–	–	–	–	–	–	–	–	–	–	MIC ([1]; ATCC 29213, racemic form, Table 3): ≤0.4 µg/mL; MIC ([1]; Staphylococcus aureus, ATCC29213, ATCC 29213, racemic mixture, Table 2, read-out: MIC): ≤ 0.4 µg/mL; MIC (MRSA clinical strain 433; racemic form, Table 3): 1.6 µg/mL (≈ 4.74 µM); MIC (MRSA clinical strain 433; [23]): 1.6 µg/mL (≈ 4.74 µM); MIC ([7]; MRSA, racemic mixture, Table 2): 3.13 µg/mL (≈ 9.28 µM); MIC ([7]; racemic form, Table 3, read-out: MIC): 3.12 µg/mL (≈ 9.26 µM); MIC [8, 23]: 0.8 µg/mL (≈ 2.37 µM); MIC ([8]; racemic form, Table 3): 0.8 µg/mL (≈ 2.37 µM); MIC ([9]; MSSA, racemic mixture, Table 2): 3.13 µg/mL (≈ 9.28 µM); MIC ([9]; MSSA M923, racemic form, Table 3, read-out: MIC): 3.12 µg/mL (≈ 9.26 µM); MIC-range ([10]; tested range ≤0.06 - >128): 0.25 to 16 µg/mL; MIC50 ([10]; Staphylococcus aureus, read-out: MIC50): 2 µg/mL; MIC90 ([10]; Staphylococcus aureus, read-out: MIC90): 4 µg/mL; MIC range [11]: 32 to 64 µg/mL; MIC50 ([11]; Staphylococcus epidermidis, read-out: MIC50): 32 µg/mL (≈ 94.9 µM); MIC90 ([11]; Staphylococcus epidermidis, read-out: MIC90): 64 µg/mL (≈ 190 µM); effect on proteins synthesized by mtDNA (in words) ([6]; HepG2, linezolid 100 μg/mL, A4bS 10-100 μg/mL, vs non-treated cells, FIG. 6): significant decrease
